Assays:
Format in all cases: in vivo
Setaria faberi (SETFA) [1] = assay: Pre-emergence glasshouse herbicide test, Setaria faberi; details: evaluated after 13 days, five point scale
Method: (§1) Seeds of a variety of test species are sown in standard soil in pots (Lolium perenne (LOLPE), Solanum nigrum (SOLNI), Amaranthus retoflexus (AMARE), Setaria faberi (SETFA), Echinochloa crus-galli (ECHCG), Ipomoea hederacea (IPOHE)). After cultivation for one day (pre-emergence) or after 8 days cultivation (post-emergence) under controlled conditions in a glasshouse (at 24/16° C., day/night; 14 hours light; 65% humidity), the plants are sprayed with an aqueous spray solution derived from the formulation of the technical active ingredient in acetone/water (50:50) solution containing 0.5% Tween 20 (polyoxyethelyene sorbitan monolaurate, CAS RN 9005-64-5). […] The test plants are then grown in a glasshouse under controlled conditions in a glasshouse (at 24/16° C., day/night; 14 hours light; 65% humidity) and watered twice daily. After 13 days for pre and post-emergence, the test is evaluated for the percentage damage caused to the plant. The biological activities are shown in the following table on a five point scale (5=80-100%; 4=60-79%; 3=40-59%; 2=20-39%; 1=0-19%).

[2] = tested on: Amaranthus retoflexus (AMARE); assay: Pre-emergence glasshouse herbicide test, Amaranthus retoflexus; details: evaluated after 13 days, five point scale
Method: as §1

[3] = tested on: Ipomoea hederacea (IPOHE); assay: Pre-emergence glasshouse herbicide test, Ipomoea hederacea; details: evaluated after 13 days, five point scale
Method: as §1

[4] = tested on: Echinochloa crus-galli (ECHCG); assay: Post-emergence glasshouse herbicide test, Echinochloa crus-galli; details: evaluated after 13 days, five point scale
Method: as §1

[5] = tested on: Echinochloa crus-galli (ECHCG); assay: Pre-emergence glasshouse herbicide test, Echinochloa crus-galli; details: evaluated after 13 days, five point scale
Method: as §1

[6] = tested on: Ipomoea hederacea (IPOHE); assay: Post-emergence glasshouse herbicide test, Ipomoea hederacea; details: evaluated after 13 days, five point scale
Method: as §1

[7] = tested on: Amaranthus retoflexus (AMARE); assay: Post-emergence glasshouse herbicide test, Amaranthus retoflexus; details: evaluated after 13 days, five point scale
Method: as §1

Setaria faberi (SETFA) [8] = assay: Post-emergence glasshouse herbicide test, Setaria faberi; details: evaluated after 13 days, five point scale
Method: as §1

Lolium perenne (LOLPE) [9] = assay: Post-emergence glasshouse herbicide test, Lolium perenne; details: applied at 250 g/ha, evaluated after 13 days, five point scale
Method: as §1

Lolium perenne (LOLPE) [10] = assay: Pre-emergence glasshouse herbicide test, Lolium perenne; details: applied at 250 g/ha, evaluated after 13 days, five point scale
Method: as §1

Structure (SMILES)	percentage damage caused to the plant, PRE Application SETFA (Setaria faberi (SETFA) [1]; 1000 g/h)	percentage damage caused to the plant, PRE Application AMARE ([2]; 1000 g/h)	percentage damage caused to the plant, PRE Application IPOHE ([3]; 1000 g/h)	percentage damage caused to the plant, POST Application ECHCG ([4]; 1000 g/h)	percentage damage caused to the plant, PRE Application ECHCG ([5]; 1000 g/h)	percentage damage caused to the plant, POST Application IPOHE ([6]; 1000 g/h)	percentage damage caused to the plant, POST Application AMARE ([7]; 1000 g/h)	percentage damage caused to the plant, POST Application SETFA (Setaria faberi (SETFA) [8]; 1000 g/h)	percentage damage caused to the plant, PRE Application SETFA (Setaria faberi (SETFA) [1]; applied at 250 g/ha)	percentage damage caused to the plant, PRE Application AMARE ([2]; applied at 250 g/ha)	percentage damage caused to the plant, PRE Application IPOHE ([3]; applied at 250 g/ha)	percentage damage caused to the plant, POST Application ECHCG ([4]; applied at 250 g/ha)	percentage damage caused to the plant, PRE Application ECHCG ([5]; applied at 250 g/ha)	percentage damage caused to the plant, POST Application IPOHE ([6]; applied at 250 g/ha)	percentage damage caused to the plant, POST Application LOLPE (Lolium perenne (LOLPE) [9])	percentage damage caused to the plant, POST Application AMARE ([7]; applied at 250 g/ha)	percentage damage caused to the plant, PRE Application LOLPE (Lolium perenne (LOLPE) [10])	percentage damage caused to the plant, POST Application SETFA (Setaria faberi (SETFA) [8]; applied at 250 g/ha)
CCn1nnnc1NC(=O)c1nn2cnn(-c3cccc(C)c3)c2nc1=O [Compound 1.046]	5 (5=80-100%)	5 (5=80-100%)	5 (5=80-100%)	5 (5=80-100%)	5 (5=80-100%)	5 (5=80-100%)	5 (5=80-100%)	5 (5=80-100%)										
O=C1CCCC(=O)C1C(=O)c1nn2cnn(-c3ccccc3)c2nc1=O [Compound 4.001]									1 (1=0-19%)	5 (5=80-100%)	1 (1=0-19%)	5 (5=80-100%)	5 (5=80-100%)	5 (5=80-100%)	1 (1=0-19%)	5 (5=80-100%)	2 (2=20-39%)	5 (5=80-100%)
O=C1CCCC(=O)C1C(=O)c1nn2cnn(-c3ccc(C(F)(F)F)cc3)c2nc1=O [Compound 4.008]	5 (5=80-100%)	5 (5=80-100%)	5 (5=80-100%)	5 (5=80-100%)	5 (5=80-100%)	5 (5=80-100%)	4 (4=60-79%)	5 (5=80-100%)										
O=C1CCCC(=O)C1C(=O)c1nn2cnn(-c3cccc(Cl)c3)c2nc1=O [Compound 4.009]	5 (5=80-100%)	5 (5=80-100%)	5 (5=80-100%)	5 (5=80-100%)	5 (5=80-100%)	5 (5=80-100%)	5 (5=80-100%)	5 (5=80-100%)										
O=C(c1nn2cnn(-c3ccc(C(F)(F)F)cc3)c2nc1=O)C1C(=O)C2CCC(C2)C1=O (centres unmarked) [Compound 5.008]	5 (5=80-100%)	5 (5=80-100%)	5 (5=80-100%)	5 (5=80-100%)	5 (5=80-100%)	5 (5=80-100%)	5 (5=80-100%)	5 (5=80-100%)										
Cc1cccc(-n2ncn3nc(C(=O)C4C(=O)CC(C)CC4=O)c(=O)nc23)c1 (centres unmarked) [Compound 6.001]	4 (4=60-79%)	5 (5=80-100%)	5 (5=80-100%)	5 (5=80-100%)	5 (5=80-100%)	5 (5=80-100%)	5 (5=80-100%)	5 (5=80-100%)										
